Structures can show the parent of a compound that is named as a salt.
Each compound was assayed against T1, NaV1.7 (Homo sapiens, UniProt Q15858) (assay: Automated patch clamp (Qube 384), external block of NaV1.7). Conditions: IC50, compound in external solution, HEK293 cells, read-out: Nav1.7 Extracellular Inhibition.
T1 construct: expressed in transfected cells; host or cells: HEK293 (tetracycline-inducible)
T1 sequence (Q15858 whole entry): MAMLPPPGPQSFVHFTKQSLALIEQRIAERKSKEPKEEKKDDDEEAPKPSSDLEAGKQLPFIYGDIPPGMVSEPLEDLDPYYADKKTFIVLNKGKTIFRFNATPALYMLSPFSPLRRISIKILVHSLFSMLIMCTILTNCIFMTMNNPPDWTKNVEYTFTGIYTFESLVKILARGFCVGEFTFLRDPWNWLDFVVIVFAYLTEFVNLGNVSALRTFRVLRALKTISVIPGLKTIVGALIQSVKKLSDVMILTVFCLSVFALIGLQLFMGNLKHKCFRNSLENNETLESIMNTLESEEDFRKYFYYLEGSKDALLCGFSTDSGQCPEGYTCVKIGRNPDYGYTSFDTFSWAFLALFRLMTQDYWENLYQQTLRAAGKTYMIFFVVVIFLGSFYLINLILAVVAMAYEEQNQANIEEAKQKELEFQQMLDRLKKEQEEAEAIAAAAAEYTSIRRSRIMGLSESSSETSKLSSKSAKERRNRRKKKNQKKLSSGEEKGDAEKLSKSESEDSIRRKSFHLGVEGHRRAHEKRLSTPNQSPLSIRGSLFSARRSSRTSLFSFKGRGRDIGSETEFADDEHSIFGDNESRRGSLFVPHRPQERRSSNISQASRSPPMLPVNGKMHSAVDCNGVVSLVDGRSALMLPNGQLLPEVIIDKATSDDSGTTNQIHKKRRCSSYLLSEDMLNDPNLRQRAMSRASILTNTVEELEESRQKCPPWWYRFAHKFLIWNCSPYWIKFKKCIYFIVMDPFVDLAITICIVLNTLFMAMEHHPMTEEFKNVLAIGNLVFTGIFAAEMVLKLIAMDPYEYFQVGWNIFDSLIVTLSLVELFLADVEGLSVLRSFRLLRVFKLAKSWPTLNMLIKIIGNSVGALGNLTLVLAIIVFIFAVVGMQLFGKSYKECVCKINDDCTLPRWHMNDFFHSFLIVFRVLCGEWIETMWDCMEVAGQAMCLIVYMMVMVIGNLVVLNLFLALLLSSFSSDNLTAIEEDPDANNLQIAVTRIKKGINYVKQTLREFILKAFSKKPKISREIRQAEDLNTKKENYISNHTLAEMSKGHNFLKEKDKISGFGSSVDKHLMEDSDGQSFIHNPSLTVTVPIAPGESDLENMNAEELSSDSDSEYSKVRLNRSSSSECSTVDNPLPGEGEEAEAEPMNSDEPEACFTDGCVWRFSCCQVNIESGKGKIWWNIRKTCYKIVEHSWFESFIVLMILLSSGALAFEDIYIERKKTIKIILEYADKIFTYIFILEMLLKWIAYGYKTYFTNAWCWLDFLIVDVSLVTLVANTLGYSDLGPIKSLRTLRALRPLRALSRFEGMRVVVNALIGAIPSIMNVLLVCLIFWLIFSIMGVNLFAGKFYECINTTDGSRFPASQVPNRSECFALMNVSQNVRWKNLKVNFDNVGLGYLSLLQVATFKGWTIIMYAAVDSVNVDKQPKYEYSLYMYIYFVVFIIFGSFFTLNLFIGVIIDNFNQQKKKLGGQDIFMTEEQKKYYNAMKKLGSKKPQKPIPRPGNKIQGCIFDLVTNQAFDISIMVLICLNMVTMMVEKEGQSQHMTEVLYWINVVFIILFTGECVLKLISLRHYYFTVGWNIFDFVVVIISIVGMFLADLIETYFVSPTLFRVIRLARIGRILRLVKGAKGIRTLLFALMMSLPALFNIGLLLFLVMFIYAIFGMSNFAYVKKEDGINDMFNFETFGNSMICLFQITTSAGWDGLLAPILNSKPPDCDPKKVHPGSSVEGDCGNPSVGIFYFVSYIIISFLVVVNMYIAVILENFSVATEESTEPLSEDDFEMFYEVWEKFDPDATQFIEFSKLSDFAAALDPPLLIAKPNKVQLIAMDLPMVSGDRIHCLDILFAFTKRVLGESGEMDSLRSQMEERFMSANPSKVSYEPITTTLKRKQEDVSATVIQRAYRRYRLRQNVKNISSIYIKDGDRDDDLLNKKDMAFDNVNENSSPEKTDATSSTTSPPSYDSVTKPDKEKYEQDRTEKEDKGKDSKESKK
Type: cell-based
Protocol: NaV1.7 was expressed in HEK293 cells upon induction with tetracycline. Cells were cultured in DMEM containing 10% dialyzed Fetal Bovine Serum (VWR, Radnor, Pa.), 1% Glutamax (VWR, Radnor, Pa.), 1% Penicillin-Streptomycin (VWR, Radnor, Pa.), 100 mg/L Hygromycin (Thermo Fisher Scientific, Waltham, Mass. and 5 mg/L Blasticidin (Alfa Aesar, Haverhill, Mass.). Cells were grown and maintained at 37° C. in a humidified environment containing 10% CO2 in air. Cells were detached from the culture flask for passage and harvested using 0.05% Trypsin-EDTA (Thermo Fisher Scientific, Waltham, Mass.). To induce NaV1.7, cells were induced with tetracycline (0.1-1 μg/mL, IBI Scientific, Peosta, Iowa) the day before recording.
Before experiments, cells were washed with DPBS (VWR, Radnor, Pa.), digested with Detachin (VWR Radnor, Pa.) and then triturated 10 times in CHO Serum-Free Media (VWR Radnor, Pa.) to resuspend the cells and to break apart cell aggregates. Cells were counted and the final concentration was set at 2-5 million cells per mL.
The intracellular solution contained the following: 140 mM CsF, 1 mM/5 mM EGTA/CsOH, 10 mM HEPES, 10 mM NaCl, adjusted to pH 7.3 with CsOH, and osmolality to 320 with OSM solution. The external solution contained the following: 145 mM NaCl, 4 mM KCl, 1 mM MgCl2, 2 mM CaCl2), 10 mM HEPES, 10 mM Glucose, adjusted to pH 7.4 with CsOH and osmolality to 305 with OSM solution. The OSM solution was a normal Ringer solution containing (in mM) NaCl 155, HEPES 10, sucrose, KCl 3.5, CaCl2) 1.5, MgCl2 1 adjusted to pH 7.4 with NaOH. All chemicals are from Sigma-Aldrich, St. Louis, Mo. In order to test the degree of internal block by test compounds, the compounds were dissolved in internal solution at the indicated test concentration. […] In order to test the degree of external block by test compounds the compounds were dissolved in external solution at the indicated test concentration.
Automated Patch Clamps were performed on Qube 384 (Sophion Bioscience, Woburn Mass.) with multihole Qchips at a temperature setting of 22 degrees. The whole cells configuration was formed with default Qube seal and break-in parameter. The membrane potential was held at −100 mV before the voltage protocol began. Two voltage protocols were followed.
Step 1: Cells were held at −100 mV with a depolarized pulse to −20 mV for 10 ms, the interval was set at 5 s. Currents were corrected by default leak subtraction from every pulse. The duration was set at 5 mins.
Step 2: Cells were held at −100 mV with a depolarized pulse to −20 mV for 10 ms. The frequency was 5 Hz. Currents were corrected by leak subtraction calculated before step 2. The duration was set at 4 mins.
After Step 2, the external solution was changed with solutions containing test compounds. Qchips were held at −100 mV without pulsing. The total solution switching time was 8 minutes. After the external solution exchange, cells were recorded using the same procedure as step 2 for 10 minutes.
Data analysis was performed by Sophion Analyzer. Data were corrected with control cells (Non-Drug). The IC50 data were plotted with DR-plots/Hill function (a dose-response plot with a Hill fit). Representative examples of the invention were tested for extracellular inhibition of NaV 1.7 in the automated patch clamp assay. Activity Range is reported as IC50: “++++” ([…], “+++” (1-3 μM), “++” ([…]) or “+” (>10 μM). The results are presented below.
CCN(CC)C(=O)C1CCC[N+](CC(=O)Nc2c(C)cccc2C)(Cc2ccccc2)C1 (stereo not shown) [Compound 66A] gave an IC50 greater than 10 µM. Work on CCOc1cccc(C)c1NC(=O)C[N+]1(Cc2ccccc2)CCCCCC1.[Br-] [Compound 77A] yielded an IC50 of 1 to 3 µM. Cc1cccc(C)c1C(=O)OCC[N+]1(Cc2ccccc2)CCCCCC1.[Br-] [Compound 82A, 1-benzyl-1-(2-((2,6-dimethylbenzoyl)oxy)ethyl) azepan-1-ium bromide] was tested, and the IC50 was 3 to 10 µM. With CCOC(=O)C1CCC[N+](CC(=O)Nc2c(C)cccc2C)(Cc2ccccc2)C1.[Br-] (stereo not shown) [Compound 45A, 1-benzyl-1-(2-((2,6-dimethylphenyl)amino)-2-oxoethyl)-3-(ethoxycarbonyl) piperidin-1-ium bromide] the IC50 was greater than 10 µM. For Cc1cccc(C)c1N1CCC([N+]2(Cc3ccccc3)CCCCCCC2)C1=O.[Br-] (stereo not shown) [Compound 90A], the IC50 was 3 to 10 µM. Work on “1-benzyl-1-(2-((2-(dimethylcarbamoyl)-6-methylphenyl) amino)-2-oxoethyl) azepan-1-ium bromide [Compound 81A]” yielded an IC50 greater than 10 µM. In the case of CC[N+](CC)(CCCc1ccccc1)CC(=O)Nc1c(C)cccc1C.[Br-] [Compound 86A, N-(2-((2,6-dimethylphenyl)amino)-2-oxoethyl)-N, N-diethyl-3-phenylpropan-1-aminium bromide], the IC50 is reported as greater than 10 µM. COC(=O)c1ccccc1C[N+]1(CC(=O)Nc2c(C)cccc2C)CCCCC1.[Br-] [Compound 37A, 1-(2-((2,6-dimethylphenyl)amino)-2-oxoethyl)-1-(2-(methoxycarbonyl)benzyl) piperidin-1-ium bromide] gave an IC50 greater than 10 µM. CCCNC(=O)C1CCC[N+](CC(=O)Nc2c(C)cccc2C)(Cc2ccccc2)C1 (stereo not shown) [Compound 57A] gave an IC50 of 3 to 10 µM. Compound CCCc1cccc(C)c1NC(=O)C[N+]1(Cc2ccccc2)CCCCCC1.[Br-] [Compound 75A] has an IC50 of 3 to 10 µM. Work on Cc1cccc(C)c1N(C)C(=O)C[N+]1(Cc2ccccc2)CCCCCC1 [Compound 38A, 1-benzyl-1-(2-((2,6-dimethylphenyl) (methyl)amino)-2-oxoethyl) azepan-1-ium formate] yielded an IC50 greater than 10 µM. In the case of COC(=O)C1CC[N+](CC(=O)Nc2c(C)cccc2C)(Cc2ccccc2)CC1.[Br-] (stereo not shown) [Compound 44A, 1-benzyl-1-(2-((2,6-dimethylphenyl)amino)-2-oxoethyl)-4-(methoxycarbonyl) piperidin-1-ium bromide], the IC50 is reported as greater than 10 µM. Compound CCCOC(=O)C1CCC[N+](CC(=O)Nc2c(C)cccc2C)(Cc2ccccc2)C1.[Br-] (stereo not shown) [Compound 47A, 1-benzyl-1-(2-((2,6-dimethylphenyl)amino)-2-oxoethyl)-3-(propoxycarbonyl) piperidin-1-ium bromide] has an IC50 of 1 to 3 µM. For Cc1cccc(C)c1N1CCCC([N+]2(Cc3ccccc3)CCCC2)C1=O.[Br-] (stereo not shown) [Compound 91A, 1-benzyl-1-(1-(2,6-dimethylphenyl)-2-oxopiperidin-3-yl) pyrrolidin-1-ium bromide], the IC50 was greater than 10 µM. Compound Cc1cccc(C)c1NC(=O)C[N+]1(Cc2ccccc2)CCCC(C(=O)N2CCCCC2)C1 (stereo not shown) [Compound 63A] has an IC50 of 3 to 10 µM. COC(=O)c1cccc(C[N+]2(CC(=O)Nc3c(C)cccc3C)CCCCC2)c1.[Br-] [Compound 35A, 1-(2-((2,6-dimethylphenyl)amino)-2-oxoethyl)-1-(3-(methoxycarbonyl)benzyl) piperidin-1-ium bromide] showed an IC50 greater than 10 µM. With Cc1cccc(C)c1NC(=O)C[N+]1(Cc2ccccc2)CCCC(C(N)=O)C1.[Br-] (mixture of isomers) [Compound 53A, 1-benzyl-3-carbamoyl-1-(2-((2,6-dimethylphenyl)amino)-2-oxoethyl) piperidin-1-ium bromide] the IC50 was greater than 10 µM. COC(=O)c1ccc(C[N+]2(CC(=O)Nc3c(C)cccc3C)CCCCC2)cc1.[Br-] [Compound 36A, 1-(2-((2,6-dimethylphenyl)amino)-2-oxoethyl)-1-(4-(methoxycarbonyl)benzyl) piperidin-1-ium bromide] gave an IC50 greater than 10 µM. For Cc1cccc(C)c1NC(=O)C[N+]1(Cc2ccccc2)CCCC(C(=O)N2CCCC2)C1 (stereo not shown) [Compound 62A], the IC50 was greater than 10 µM. Work on Cc1cccc(C)c1NC(=O)C[N+]1(Cc2ccccc2)CCCC(F)(F)C1.[Br-] (stereo not shown) [Compound 32A, 1-benzyl-1-(2-((2,6-dimethylphenyl)amino)-2-oxoethyl)-3,3-difluoropiperidin-1-ium bromide] yielded an IC50 greater than 10 µM. Compound CCC(=O)Oc1cccc(C)c1NC(=O)C[N+]1(Cc2ccccc2)CCCCCC1.[Br-] [Compound 80A, 1-benzyl-1-(2-((2-methyl-6-(propionyloxy)phenyl)amino)-2-oxoethyl) azepan-1-ium bromide] has an IC50 greater than 10 µM. For Cc1cccc(C)c1N1CCC([N+]2(Cc3ccccc3)CCCCC2)C1=O.[Br-] (stereo not shown) [Compound 89A, 1-benzyl-1-(1-(2,6-dimethylphenyl)-2-oxopyrrolidin-3-yl)piperidin-1-ium bromide], the IC50 was greater than 10 µM. In the case of Cc1cccc(C)c1NC(=O)C[N+]1(Cc2ccccc2)CCCC(C(=O)OC(C)C)C1 (mixture of isomers) [Compound 46A, 1-benzyl-1-(2-((2,6-dimethylphenyl)amino)-2-oxoethyl)-3-(isopropoxycarbonyl) piperidin-1-ium trifluoroacetate salt], the IC50 is reported as 3 to 10 µM. In the case of CNC(=O)C1CCC[N+](CC(=O)Nc2c(C)cccc2C)(Cc2ccccc2)C1 (stereo not shown) [Compound 55A], the IC50 is reported as greater than 10 µM. Work on Cc1cccc(F)c1NC(=O)C[N+]1(Cc2ccccc2)CCCCCC1.[Br-] [Compound 69A, 1-benzyl-1-(2-((2-fluoro-6-methylphenyl)amino)-2-oxoethyl)azepan-1-ium bromide] yielded an IC50 of 3 to 10 µM. For CCNC(=O)C1CCC[N+](CC(=O)Nc2c(C)cccc2C)(Cc2ccccc2)C1.[Br-] (stereo not shown) [Compound 54A, 1-benzyl-1-(2-((2,6-dimethylphenyl)amino)-2-oxoethyl)-3-(ethylcarbamoyl) piperidin-1-ium bromide], the IC50 was greater than 10 µM. CCCOC(=O)N1CCC[N+](CC(=O)Nc2c(C)cccc2C)(Cc2ccccc2)CC1.[Br-] (stereo not shown) [Compound 68A, 1-benzyl-1-(2-((2,6-dimethylphenyl)amino)-2-oxoethyl)-4-(propoxycarbonyl)-1,4-diazepan-1-ium bromide] showed an IC50 greater than 10 µM. In the case of CCCCNc1ccc(NC(=O)C[N+]2(Cc3ccccc3)CCCCCC2)cc1.O=C[O-] [Compound 41A, 1-benzyl-1-(2-((4-(butylamino)phenyl)amino)-2-oxoethyl) azepan-1-ium formate], the IC50 is reported as greater than 10 µM.
